“Also recorded” adds a separate entry of the source.
What was measured:
Type in all cases: in vivo, Wister rats
nephritis model rat [1] = experiment: Effects of orniplabin on urinary protein, lipid peroxide in blood and organomegaly in nephritis model rat
Experimental: Three-week-old male Wister rats (Charles River) were raised for 6 days with pellet diet (CE-2, Nihon Crea) and then raised with the 20% casein diet for 5 days to be subjected to the experiment. The animals were raised at approximately 22° C., with relative humidity […] under lighting from 8:00 to 20:00.
(§1) 0.6 mL of Anti-rat-glomerular basement membrance rabbit serum was administered into the caudal vein. Next day rabbit γ-globulin (Sigma), and 8 mg/0.2 mL Freund's complete adjuvant (Wako Junyaku) were subcutaneously injected into hinder leg's footpad to cause nephritis (nephritis model rat).
Since anti-serum was injected, the body weight and feed intake were measured every morning and urinary proteins of 24-hour urine was measured every other day, specifically urine was collected in a flask from 9 AM of the day before to 9 AM of the day and the measurement was carried out using commercial protein measurement kit (Bio-Rad, Protein Assay, Bio-Rad). (Refer to Biosci. Biotechnol. Biochem., 65, 1155-1162 (2001))
(§2) The urinary proteins were measured three days after the injection of anti-serum and the rats were grouped according to the measurement values. An orniplabin solution equivalent to 5 mg/Kg concentration was intrapenitoneally injected everyday to the orniplabin administration group since then. Nothing was injected to the control group. Rats of respective groups were dissected to remove blood, liver and kidneys 14 days after nephritis was induced, and weights of the removed materials were measured. Further lipid peroxides of a part of blood obtained were measured using a commercial measurement kit (Wako Junyaku). The normal group represents the untreated group, the control group represents—the nephritis-induced group and SMTP group represents the orniplabin-injected group. Student's t-test of significant difference between two groups was carried out as the level significance is 0.05. Tukey's multiple comparison method was used for the testing of significance between three groups. The data associated with the amount of urinary proteins and the weight of organs are treated with the scale per 100 g of body weight as a benchmark.

nephritis model rat [2] = experiment: Effects of orniplabin administration on plasma components in nephritis model rat
Experimental: as §1, §2
Further effects of orniplabin administration on plasma components were investigated by measuring a variety of concentrations of plasma component, (Normal group, n=6; control group, n=10; and orniplabin-injected group, n=6) The following plasma components were measured; lactate dehydrogenase (LD; PureAuto S LD), […] amino transferase (AST AutoSera S AST), alanine aminotransferase (ALT: AutoSera S ALT), creatine phosphate kinase (CPK; PureAuto S CK), alkaline phosphatase (ALP; AutoSera S ALP), γ-glutamyl transpeptidase (γ-GTP; PureAuto S γ-GT), total bilirubin (BIL: AutoSera BIL-2), glucose (GLU; PureAuto S GLU-R), triglyceride (TG; AutoSera S TG-N), total cholesterol (T-CHO; Choletest CHO), phospholipid (PL; PureAuto S PL), total protein (TP; AutoSera TP), urea nitrogen (UN; PureAuto S UN), albumin (ALB; AutoSera ALB), calcium (CA; AutoSera CA), inorganic phosphoric acid (IP; Clini mate IP-2), (Daiichi Chemical), creatinine (CRE-S; AccursAuto CRE, Sinotest), acetoacetic acid (ACAC; Ketone Test A Sanwa liquid, Sanwa Science Laboratories), 3-hydroxy butyric acid (OHBA; Ketone Test B Sanwa liquidA Sanwa Science Laboratories), free fafty acids (NEFA; AutoSera R NEFA (Daiichi Chemical) and HDL cholesterol (HDL; Cholest-R N HDL (Daichi Chemical) were used to measure. Further Hitachi Amino acid automatic analyzer 7180 (Hitachi) was used.
The comparison results between the control group and the orniplabin-injected group, and the normal group of which average value is as 1 are shown in FIG. 5 to FIG. 8.

nephritis model rat [3] = experiment: Observation of PAS-stained kidney histologic sections and nephritis score
Experimental: Section samples were prepared from three animals selected according to the variation of urinary protein in respective groups. Periodic acid Schiff (PAS) staining was conducted on the kidney histologic section.
A procedure for PAS staining was; slicing a sampler washing the sample with water after paraffin-removal, soaking the sample in a solution of 1% periodic acid for 10 minutes, and washing again the sample with water; soaking the histologic section prepared in Schiff reagent for 10 to 15 minutes, washing the sample in a staining bat three times for 3 minutes, total for 9 minutes, and washing the sample with water; and then staining the sample with hematoxylin for 1 minute, washing the sample with warm water for 10 minutes, dehydrating and penetrating the sample and then sealing the sample.
Observation of the histologic sample was conducted on renal glomerulus using a microscope with 200× magnifications. The bar in Figs is corresponding to 50 μm.
Fifty (50) glomeruli every three samples of each group were ranked according to damaged levels. The ranks were from normal (rank 1) to the most progressed damage (rank 5) and five grades according to damages were given to provide a score. The average of the scores was decided as the score of the sample (nephritis score).

[4] = 5 mg/Kg intraperitoneal everyday
[5] = 5 mg/Kg intraperitoneal everyday, 14 days after nephritis induction, weight per 100 g body weight
[6] = decrease by induction of nephritis
[7] = orniplabin-injected group vs control group
[8] = renal glomerulus, PAS staining, orniplabin-injected group

With `CC(C)=CCC/C(C)=C/CC[C@@]1(C)Oc2c(c(O)cc3c2CN(CCC[C@@H](C(=O)O)N2Cc4c(cc(O)c5c4O[C@](C)(CC/C=C(\C)CCC=C(C)C)[C@H](O)C5)C2=O)C3=O)C[C@H]1O` [orniplabin] the food intake (nephritis model rat [1]; [4]) was “without affecting”, the “increase of body weight” value (nephritis model rat [1]; [4]) was “without affecting” and the urinary proteins (nephritis model rat [1]; 5 mg/Kg intraperitoneal everyday from day 3, 24-hour urine, vs control group) was “decreased”. For the same compound, the “lipid peroxides in serum” value (nephritis model rat [1]; 5 mg/Kg intraperitoneal everyday, 14 days after nephritis induction, vs control group) was “decreased”, the hypertrophy of kidneys (nephritis model rat [1]; [5]) was “suppressed” and the hypertrophy of liver (nephritis model rat [1]; [5]) was “suppressed”. For the same compound, the “concentration of BIL in plasma” value (nephritis model rat [2]; [6]) was “prevented or these concentrations were recovered”, the “concentration of CA in plasma” value (nephritis model rat [2]; [6]) was “prevented or these concentrations were recovered” and the “concentration of GLU in plasma” value (nephritis model rat [2]; [6]) was “prevented or these concentrations were recovered”. The “concentration of IP in plasma” value (nephritis model rat [2]; [6]) was “prevented or these concentrations were recovered”, the “concentration of TP (total proteins) in plasma” value (nephritis model rat [2]; orniplabin-injected group) was “recovered to the normal level” and the “concentration of ACAC in plasma” value (nephritis model rat [2]; [7]) was “lower than that of the control group”. For the same compound, the “concentration of ALB in plasma” value (nephritis model rat [2]; [7]) was “almost not different”, the “concentration of ALP in plasma” value (nephritis model rat [2]; [7]) was “not significantly different” and the “concentration of ALT in plasma” value (nephritis model rat [2]; [7]) was “not significantly different”. For the same compound, the “concentration of AST in plasma” value (nephritis model rat [2]; [7]) was “not significantly different”, the “concentration of CRE-S in plasma” value (nephritis model rat [2]; [7]) was “almost not different” and the “concentration of HDL in plasma” value (nephritis model rat [2]; [7]) was “in decreasing trend”. For the same compound, the “concentration of LD in plasma” value (nephritis model rat [2]; [7]) was “not significantly different”, the “concentration of OHBA in plasma” value (nephritis model rat [2]; [7]) was “prevented or these concentrations were recovered; also recorded: higher than that of the control group” and the “concentration of OK in plasma” value (nephritis model rat [2]; [7]) was “not significantly different”. The “concentration of PL in plasma” value (nephritis model rat [2]; [7]) was “in decreasing trend”, the “concentration of T-CHO in plasma” value (nephritis model rat [2]; [7]) was “in decreasing trend” and the “concentration of TG in plasma” value (nephritis model rat [2]; [7]) was “significantly decreased”. For the same compound, the “concentration of UN in plasma” value (nephritis model rat [2]; [7]) was “almost not different”, the “concentration of γ-GTP in plasma” value (nephritis model rat [2]; [7]) was “not significantly different” and the nephritis score (nephritis model rat [3]; 50 glomeruli per sample, three samples, rank 1 (normal) to rank 5 (most progressed damage), control group 3.80±0.13) was 2.77±0.04. For the same compound, the “abnormal histologic hypertrophy of proximal convoluted tubule tissue” value (nephritis model rat [3]; PAS staining, orniplabin-injected group) was “not observed”, the crescent formation (nephritis model rat [3]; [8]) was “low level crescent formation” and the mesangium proliferation (nephritis model rat [3]; [8]) was “almost no mesangium proliferation”.

Source: patent publication US20090270476A1, “PHARMACEUTICAL COMPOSITION FOR TREATMENT OR PREVENTION OF NEPHRITIS AND MANUFACTURING METHOD THEREOF” (priority 2005, published 2009)
